Numbering of substitutions follows the chain as printed.

Assay [1] deals with T1, SLC7A13-SLC3A1 complex (Homo sapiens, UniProt Q8TCU3, T225A).
T1 construct: heterodimeric light/heavy chain transporter, dimer of heterodimers; ectopically expressed in HEK293T / HEK293 cells (Expi293 for cryo-EM); with Amino acid transporter heavy chain SLC3A1
T1 sequence (Q8TCU3 1-470 T225A): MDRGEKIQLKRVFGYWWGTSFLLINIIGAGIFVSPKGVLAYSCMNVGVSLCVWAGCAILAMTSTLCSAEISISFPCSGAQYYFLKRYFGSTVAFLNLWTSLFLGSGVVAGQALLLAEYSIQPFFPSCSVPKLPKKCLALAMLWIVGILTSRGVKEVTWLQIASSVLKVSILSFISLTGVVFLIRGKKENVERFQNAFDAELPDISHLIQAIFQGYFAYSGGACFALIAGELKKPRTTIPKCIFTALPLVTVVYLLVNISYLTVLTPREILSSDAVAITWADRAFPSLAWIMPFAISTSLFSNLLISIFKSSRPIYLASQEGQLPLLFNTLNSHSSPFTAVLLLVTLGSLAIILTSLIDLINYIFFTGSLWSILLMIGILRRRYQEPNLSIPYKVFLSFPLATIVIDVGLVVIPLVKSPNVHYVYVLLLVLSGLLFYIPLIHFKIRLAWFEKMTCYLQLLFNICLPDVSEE
T1 sequence (Q07837 1-685 partner): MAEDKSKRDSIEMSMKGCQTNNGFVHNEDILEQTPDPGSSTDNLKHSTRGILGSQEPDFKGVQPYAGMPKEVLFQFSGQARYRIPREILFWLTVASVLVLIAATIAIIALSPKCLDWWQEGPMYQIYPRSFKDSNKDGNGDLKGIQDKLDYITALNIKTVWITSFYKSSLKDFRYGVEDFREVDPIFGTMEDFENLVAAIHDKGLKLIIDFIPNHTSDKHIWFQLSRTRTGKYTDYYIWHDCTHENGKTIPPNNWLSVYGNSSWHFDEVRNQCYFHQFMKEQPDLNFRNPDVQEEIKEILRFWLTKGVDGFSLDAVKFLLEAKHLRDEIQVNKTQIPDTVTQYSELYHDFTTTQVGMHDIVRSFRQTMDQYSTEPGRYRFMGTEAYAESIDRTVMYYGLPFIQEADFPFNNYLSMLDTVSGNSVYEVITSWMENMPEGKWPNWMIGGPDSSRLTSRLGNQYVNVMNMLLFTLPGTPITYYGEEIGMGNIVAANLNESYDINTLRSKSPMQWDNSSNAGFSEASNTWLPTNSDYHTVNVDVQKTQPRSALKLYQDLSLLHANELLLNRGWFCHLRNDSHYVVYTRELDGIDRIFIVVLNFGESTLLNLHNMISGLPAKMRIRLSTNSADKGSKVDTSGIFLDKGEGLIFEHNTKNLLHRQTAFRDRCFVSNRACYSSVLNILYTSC
Briefly: [2H]-cystine uptake, isotope tracking. Format: cell-based. Particulars: HEK293 cells transfected with SLC7A13 and SLC3A1; labelled compound.

In the next assay the target is T2, SLC7A11-SLC3A2 complex (Homo sapiens, UniProt Q9UPY5).
T2 construct: system xc-, heterodimeric light/heavy chain transporter; ectopically expressed in HEK293T cells; with Amino acid transporter heavy chain SLC3A2
T2 sequence (Q9UPY5 1-501): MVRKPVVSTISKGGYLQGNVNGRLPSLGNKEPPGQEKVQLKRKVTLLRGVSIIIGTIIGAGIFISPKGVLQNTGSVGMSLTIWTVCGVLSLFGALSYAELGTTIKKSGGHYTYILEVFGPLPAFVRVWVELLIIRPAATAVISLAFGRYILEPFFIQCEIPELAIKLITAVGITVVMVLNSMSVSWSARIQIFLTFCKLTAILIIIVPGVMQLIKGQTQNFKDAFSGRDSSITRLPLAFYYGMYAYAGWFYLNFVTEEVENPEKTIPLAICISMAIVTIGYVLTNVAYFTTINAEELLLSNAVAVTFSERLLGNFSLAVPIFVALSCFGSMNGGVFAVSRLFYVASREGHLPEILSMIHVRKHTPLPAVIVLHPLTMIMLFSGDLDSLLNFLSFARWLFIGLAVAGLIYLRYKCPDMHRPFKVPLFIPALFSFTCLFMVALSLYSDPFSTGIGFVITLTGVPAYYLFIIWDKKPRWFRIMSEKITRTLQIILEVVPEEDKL
T2 sequence (P08195 2-529 partner): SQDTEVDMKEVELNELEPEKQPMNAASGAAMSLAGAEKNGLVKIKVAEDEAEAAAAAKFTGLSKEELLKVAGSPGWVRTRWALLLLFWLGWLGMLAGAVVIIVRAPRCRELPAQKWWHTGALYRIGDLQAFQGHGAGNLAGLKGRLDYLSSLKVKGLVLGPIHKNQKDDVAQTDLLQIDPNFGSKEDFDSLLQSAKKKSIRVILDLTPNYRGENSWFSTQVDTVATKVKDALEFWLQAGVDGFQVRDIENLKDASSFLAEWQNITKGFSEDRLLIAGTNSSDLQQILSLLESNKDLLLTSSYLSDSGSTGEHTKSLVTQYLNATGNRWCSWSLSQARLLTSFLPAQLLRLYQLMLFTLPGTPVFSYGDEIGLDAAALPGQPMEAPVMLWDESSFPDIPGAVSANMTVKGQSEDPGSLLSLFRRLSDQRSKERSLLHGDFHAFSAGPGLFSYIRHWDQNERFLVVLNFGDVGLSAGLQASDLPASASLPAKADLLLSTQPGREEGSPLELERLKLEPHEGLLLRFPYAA
In words: microscale thermophoresis. Particulars: read-out: binding affinity. (In MST a laser heats a spot of the sample, and binding alters the fluorescence response.)

Assay [2] has as its target T3, SLC7A13-SLC3A1 complex (Homo sapiens, UniProt Q8TCU3, S306A).
T3 construct: heterodimeric light/heavy chain transporter, dimer of heterodimers; ectopically expressed in HEK293T / HEK293 cells (Expi293 for cryo-EM); with Amino acid transporter heavy chain SLC3A1
T3 sequence (Q8TCU3 1-470 S306A): T1 sequence (Q8TCU3 1-470 T225A) with A225T, S306A
T3 sequence (Q07837 1-685 partner): T1 sequence (Q07837 1-685 partner)
Briefly: [2H]-cystine uptake, isotope tracking. Format: cell-based. The note with it: HEK293 cells transfected with SLC7A13 and SLC3A1; labelled compound.

Regarding `N[C@@H](CSSC[C@H](N)C(=O)O)C(=O)O` [cystine], the cystine uptake entry at SLC7A13-SLC3A1 complex [1] and at SLC7A13-SLC3A1 complex [2] was “mutation in any of the seven SLC7A13-specific residues to alanine significantly reduced SLC7A13’s transporter activities” each time. Further, the Kd on SLC7A11-SLC3A2 complex came out at 15.6 ± 7.04 µM.

Source of the values: paper PMC12959773 (Protein & Cell, 2025).
